{"source": "patent US20170273922A1", "about": "“UREA AND BIS-UREA BASED COMPOUNDS AND ANALOGUES THEREOF USEFUL IN THE TREATMENT OF ANDROGEN RECEPTOR MEDIATED DISEASES OR DISORDERS” (THE ROYAL INSTITUTION FOR THE ADVACEMENT OF LEARNING/MCGILL …, priority 2014, published 2017)", "key": {"22Rv1 cells": {"tested_on": "22Rv1 cells", "assay": "Western blot analysis of apoptosis in 22Rv1 cells", "assay_type": "cell-based", "settings": "phenol red-free medium+10% CS-FBS, 24 h", "description": "A) The 22Rv1 cells express substantial level of AR-Vs, which include AR-V7 and other AR variants lacking the LBD. The ARs were probed by N-terminal directed AR antibody (N20, Santa Cruz); B) The 22Rv1 cells were androgen-starved (in phenol red-free medium+10% CS-FBS) for 3 days to ensure the full-length AR expressed in 22Rv1 are not activated. The 22Rv1 cells were subsequently co-transfected with PSA-luc and pRL-TK plasmids. […] Cells in phenol red-free medium+10% CS-FBS were exposed to DMSO or compounds for 24 h and harvested for Western blot analysis."}, "full-length IRF3": {"target": "T1, full-length IRF3 (Homo sapiens, UniProt Q14653)", "T1 construct": "co-transfected with full-length IRF3 or IRF3DBD-AR(1-547) expressing plasmids; expressed in transfected cells", "T1 sequence (Q14653 1-427)": "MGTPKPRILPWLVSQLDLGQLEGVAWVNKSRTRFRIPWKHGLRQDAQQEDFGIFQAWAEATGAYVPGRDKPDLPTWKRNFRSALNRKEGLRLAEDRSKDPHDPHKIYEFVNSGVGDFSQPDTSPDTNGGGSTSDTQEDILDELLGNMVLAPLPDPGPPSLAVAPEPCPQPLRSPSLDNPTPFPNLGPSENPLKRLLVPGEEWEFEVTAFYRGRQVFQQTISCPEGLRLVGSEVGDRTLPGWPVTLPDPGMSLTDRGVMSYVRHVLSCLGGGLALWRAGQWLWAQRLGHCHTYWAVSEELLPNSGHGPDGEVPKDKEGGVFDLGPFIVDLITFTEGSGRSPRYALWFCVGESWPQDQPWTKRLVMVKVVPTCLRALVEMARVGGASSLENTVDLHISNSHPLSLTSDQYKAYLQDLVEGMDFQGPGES", "assay": "Full-length IRF3 ISRE-luc reporter assay", "assay_type": "cell-based", "settings": "PC3 cells, 24 h", "description": "For all of the others, cells were co-transfected with full-length IRF3 or IRF3DBD-AR(1-547) expressing plasmids and with the ISRE-luc reporter and pRL-TK plasmids. […] As IRF3DBD-AR(1-547) contains the DBD of IRF3, ISRE-luc reporter instead of the PSA-luc reporter was used in our assays.\nHEK293 cells were co-transfected with IRF3DBD(1-133) or IRF3DBD-AR(1-547) or IRF3DBD-AR(181-547) or full-length IRF3 expressing plasmids and with the ISRE-luc reporter and the Renilla luciferase pRL-TK plasmids.\nHere, IRF3-AR(1-547) is the fusion of IRF3 DBD with the AR NTD (1-547). […] The plasmids expressing IRF3-AR(1-547) (A) or wild-type IRF3 (B) or IRF3 DBD (for NT) as well as ISRE-luc and pRL-TK were transiently transfected into PC3 cells. […] Bic, bicalutamide; EPI, EPI-001."}, "[1]": {"assay": "MTT assay (cytotoxicity), DU145 cells", "assay_type": "cell-based", "settings": "human, DU145 cells, Table 4.1", "summary_of_the_method": "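Following overnight attachment at 6-7×10^3 cells per well, cultures receive compound for 72 h in serum-containing (10% FBS) RPMI 1640. MTT then quantifies surviving cells, with each experiment done in triplicate and repeated at least twice.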"}, "[2]": {"assay": "MTT assay (cytotoxicity), A549 cells", "assay_type": "cell-based", "settings": "human, 72 h treatment, Table 6.1", "protocol": "(§1) MTT assays: LNCaP, 22Rv1, Du145, H1975, A549, MB231 and MCF-7 cells are maintained in RPMI 1640 supplemented with 10% FBS. Cells were seeded at a density of 6-7×10^3 cells per well in 96-well plates. After overnight incubation, cells in fresh RPMI 1640 supplemented with 10% FBS were exposed to DMSO vehicle control or test compounds at designated concentrations for 72 h. Viable cells were evaluated by MTT assays. Experiments were performed in triplicate and repeated at least twice."}, "[3]": {"assay": "MTT assay (cytotoxicity), MB231 cells", "assay_type": "cell-based", "settings": "human, 72 h treatment, Table 6.1", "protocol": "as §1"}, "[4]": {"assay": "MTT assay (cytotoxicity), H1975 cells", "assay_type": "cell-based", "settings": "human, 72 h treatment, Table 6.1", "protocol": "as §1"}, "[5]": {"assay": "MTT assay (72 h), liver hepatocellular carcinoma cell line of Table 6.1", "assay_type": "cell-based", "settings": "human, HepG2 cells (liver hepatocellular carcinoma), 72 h treatment, read-out: Cytotoxicity (IC50, μM) HepG2"}, "[6]": {"assay": "MTT assay (cytotoxicity), MCF-7 cells", "assay_type": "cell-based", "settings": "human, 72 h treatment, Table 6.1", "protocol": "as §1"}}}
{"smiles": "O=C(Nc1cccc(C(F)(F)F)c1)Nc1ccc([N+](=O)[O-])c(C(F)(F)F)c1", "note": "[Compound 442]", "values": [{"measurement": "apoptosis in 22Rv1 cells", "setting": "22Rv1 cells", "value": "induced apoptosis"}]}
{"smiles": "N#Cc1ccc(NC(=O)Nc2cccc(C(F)(F)F)c2)cc1C(F)(F)F", "note": "[Compound 467]", "values": [{"measurement": "apoptosis in 22Rv1 cells", "setting": "22Rv1 cells", "value": "induced apoptosis"}]}
{"smiles": "O=C(N/C=C/c1cccc(C(F)(F)F)c1)Nc1ccncn1", "note": "[Compound 562]", "values": [{"measurement": "melting point", "value": "213 to 215", "unit": "°C"}, {"measurement": "activity against wild-type IRF3 (ISRE-luc)", "setting": "full-length IRF3", "value": "inactive"}]}
{"smiles": "O=C(Nc1ccc(Br)nc1)Nc1cc(C(F)(F)F)cc(C(F)(F)F)c1", "note": "[Compound 566]", "values": [{"measurement": "IC50 at 72 h", "setting": "[1]", "value": 1.7, "unit": "µM"}]}
{"smiles": "O=C(Nc1cccc(C(F)(F)F)c1)Nc1ccc(NC(=O)c2ccccc2F)c(C(F)(F)F)c1", "note": "[Compound 746]", "values": [{"measurement": "IC50 at 72 h", "setting": "[2]", "value": 2.4, "unit": "µM"}, {"measurement": "IC50 at 72 h", "setting": "[3]", "value": 4.6, "unit": "µM"}, {"measurement": "IC50 at 72 h", "setting": "[4]", "value": 2.5, "unit": "µM"}, {"measurement": "IC50 at 72 h", "setting": "[5]", "value": 1.2, "unit": "µM"}, {"measurement": "activity against wild-type IRF3 (ISRE-luc)", "setting": "full-length IRF3", "value": "inactive"}, {"measurement": "IC50 at 72 h", "setting": "[6]", "value": 2.5, "unit": "µM"}]}
